Data as given in the CheMixHub ionic liquid set.

Experiment: xn = mol fraction of the nth substance listed

CCCCCCCCOS(=O)(=O)[O-].CC[n+]1ccn(C)c1 + O + O=S(=O)([O-])[O-].[K+].[K+]
101 kPa, frequency 0.0005 MHz, x2 = 0.7992, x3 = 0.000271
Conditions	electrical conductivity [S/m]
283.15 K	0.565
285.15 K	0.611
288.15 K	0.685
291.15 K	0.763
293.15 K	0.818
298.15 K	0.965
303.15 K	1.13
313.15 K	1.49
323.15 K	1.91
333.15 K	2.43
343.15 K	2.94
353.15 K	3.49
358.15 K	3.81
363.15 K	4.13

101 kPa, x2 = 0.7992, x3 = 0.000271
Conditions	viscosity [mPa·s]
298.15 K	70.4
303.15 K	54.1
308.15 K	42.26
318.15 K	26.98
328.15 K	18.12
338.15 K	12.69

CCCCCCCCOS(=O)(=O)[O-].CC[n+]1ccn(C)c1 + O + O=S(=O)([O-])[O-].[Li+].[Li+]
101 kPa, frequency 0.0005 MHz, x2 = 0.8284, x3 = 0.003275
Conditions	electrical conductivity [S/m]
283.15 K	0.479
285.15 K	0.518
287.15 K	0.561
288.15 K	0.582
289.15 K	0.605
291.15 K	0.649
293.15 K	0.698
298.15 K	0.83
303.15 K	0.975
313.15 K	1.31
323.15 K	1.68
333.15 K	2.1
343.15 K	2.62
348.15 K	2.87
358.15 K	3.41
363.15 K	3.68

101 kPa, x2 = 0.8284, x3 = 0.003275
Conditions	viscosity [mPa·s]
293.15 K	101
296.15 K	85.2
298.15 K	76.4
303.15 K	58.9
308.15 K	46.1
318.15 K	29.59
328.15 K	19.97
338.15 K	14.04

CCCCCCCCOS(=O)(=O)[O-].CC[n+]1ccn(C)c1 + O + O=S(=O)([O-])[O-].[Na+].[Na+]
101 kPa, frequency 0.0005 MHz, x2 = 0.7732, x3 = 0.0003656
Conditions	electrical conductivity [S/m]
283.15 K	0.483
285.15 K	0.523
288.15 K	0.59
291.15 K	0.655
293.15 K	0.699
298.15 K	0.829
303.15 K	0.977
313.15 K	1.35
323.15 K	1.68
333.15 K	2.11
343.15 K	2.63
353.15 K	3.13
358.15 K	3.41
363.15 K	3.72

101 kPa, x2 = 0.7732, x3 = 0.0003656
Conditions	viscosity [mPa·s]
295.65 K	86.6
298.15 K	75.4
303.15 K	58
308.15 K	45.4
318.15 K	29.06
328.15 K	19.55
338.15 K	13.72

CCCCCC[n+]1ccn(C)c1.O=S(=O)([N-]S(=O)(=O)C(F)(F)F)C(F)(F)F + O=C1CCCO1
100 kPa, frequency 0.005 MHz
Conditions	electrical conductivity [S/m]
293.15 K, x2 = 0.2973	0.296
293.15 K, x2 = 0.9001	1.11
293.15 K, x2 = 0.9493	0.746
298.15 K, x2 = 0.1076	0.261
298.15 K, x2 = 0.9493	0.819
303.15 K, x2 = 0	0.273
303.15 K, x2 = 0.4956	0.657
303.15 K, x2 = 0.9001	1.34
308.15 K, x2 = 0	0.33
308.15 K, x2 = 0.1076	0.387
308.15 K, x2 = 0.2973	0.514
308.15 K, x2 = 0.9001	1.45
313.15 K, x2 = 0.1076	0.459
313.15 K, x2 = 0.2973	0.596
313.15 K, x2 = 0.6996	1.31
313.15 K, x2 = 0.8456	1.61
318.15 K, x2 = 0.2973	0.687
318.15 K, x2 = 0.8456	1.73
318.15 K, x2 = 0.9493	1.11
323.15 K, x2 = 0	0.553
323.15 K, x2 = 0.1076	0.624
323.15 K, x2 = 0.2973	0.788
323.15 K, x2 = 0.8001	1.85
323.15 K, x2 = 0.8456	1.88

CCC[P+](c1ccccc1)(c1ccccc1)c1ccccc1.[Br-] + O=S=O + OCCO
100 kPa
Conditions	viscosity [mPa·s]
303.15 K, x2 = 0.01565, x3 = 0.9603	20.6
313.15 K, x2 = 0.01166, x3 = 0.9642	17
323.15 K, x2 = 0.009018, x3 = 0.9668	14.1
333.15 K, x2 = 0.007838, x3 = 0.968	11.6
343.15 K, x2 = 0.006951, x3 = 0.9688	10.5

CCCCCC[n+]1ccn(C)c1.[Br-] + OC1OC[C@@H](O)[C@H](O)[C@H]1O + O
298.15 K, 101 kPa
Conditions	viscosity [mPa·s]
x2 = 0, x1 = 0.001844	0.948
x2 = 0, x1 = 0.003654	1.005
x2 = 0, x1 = 0.005425	1.053
x2 = 0, x1 = 0.007153	1.101

CCC[P+](c1ccccc1)(c1ccccc1)c1ccccc1.[Br-] + OCCO
100 kPa, x2 = 0.9756
Conditions	viscosity [mPa·s]
303.15 K	20.5
313.15 K	17.1
323.15 K	14
333.15 K	11.6
343.15 K	10
353.15 K	9.1
